According to patent US20060142393A1, “Bis(thio-hydrazide amides) for treatment of hyperplasia” (priority 2004, published 2006):
Where two headings read alike, the source gives them in different places. Values belong to the compound of their own block, whether it stands above or below them.

How the values were obtained:
MES-SA/DX5 = assay: MTS growth inhibition, multi-drug resistant MES-SA/DX5 cells; format: cell-based, human; conditions: for IC50: Homo sapiens
Experimental: (§1) The in vitro activity of the compounds was assessed in a selected set of human cancer cell lines.
(§2) MES—SA, a model of uterine sarcoma, is sensitive to a number of chemotherapeutic agents, including Doxorubicin, Dactinomycin, Mitomycin C, Taxol™ and Bleomycin, but resistant to Vinblastine and Cisplatin. MES—SA/DX5 was established in the presence of increasing concentrations of Doxorubicin. […] Both MES—SA and MES—SA/Dx5 were purchased from ATCC (ATCC CRL-1976 and ATCC CRL-1977, respectively).
(§3) All experiments were performed on exponentially growing cell culture. Cell densities were 2.5×10^4 cells/ml in all experiment except special.

HL-60/TX1000 = assay: MTS growth inhibition, multi-drug resistant HL-60/TX1000 cells; format: cell-based, human; conditions: for IC50: Homo sapiens, HL60/TX1000, 72 hours, MTS assay, MDR cell line
Experimental: (§4) The in vitro activity of the compounds was assessed in a selected set of human cancer cell lines. Three pairs of tumor cell lines (non-resistant/resistant) were used to identify novel potent antitumor compounds which are capable of overcoming multi-drug resistance.
(§5) HL-60, a model of myeloid leukemia, was obtained from ATCC (ATCC CCL-240); and HL60/TX1000 was isolated in vitro by subculturing HL-60 in progressively higher concentration of Taxol™. HL-60/TX1000 cells over-express mdr-1 mRNA and p-glycoprotein (PCP), as determined by western blot and immunofluorescence labeling with antiPGP antibodies. The cells are cross-resistant to Taxol™, Vincristine, Adriamycin, Etoposide and Doxorubicin.
as §3

[1] = tested on: MDA-435 human breast tumor; assay: MDA-435 human breast carcinoma tumors in nude mice, combination with Epothilone D; format: in vivo; conditions: Compound (1) 50 mg/kg + Epothilone D 5 mg/kg intravenously, 3 times a week for 3 weeks
Experimental: A supplemented media was prepared from 50% DMEM/Dulbecco Modified Eagle Medium (High Glucose), 50% RPMI 1640, 10% FBS/Fetal Bovine Serum (Hybridoma Tested; Sterile Filtered), 1% L-Glutamine, 1% Penicillin-Streptomycin, 1% MEM Sodium Pyruvate and 1% MEM Non-Essential Amino Acids. FBS was obtained from Sigma Chemical Co. and other ingredients were obtained from Invitrogen Life Technologies, USA). The supplemental media was warmed to 37° C and 50 ml of media was added to a 175 cm^2 tissue culture flask.
The cells used in the assay were MDA-435 Human Breast Carcinoma from the American Type Culture Collection. 1 vial of MDA-435 cells from the liquid nitrogen frozen cell stock was removed. The frozen vial of cells was immediately placed into a 37° C. water bath and gently swirled until thawed. The freeze-vial was wiped with 70% ethanol and cells were immediately pipetted into the 175 cm^2 tissue culture flask containing supplemented media. […]

Bowes = assay: MTS growth inhibition, Bowes melanoma cells; format: cell-based; conditions: Homo sapiens, 72 h, MTS assay
Experimental: as §4
(§6) Bowes is a melanoma cell line; and Bowes/OV2 is a Vincristine resistant Bowes melanoma cell line.
as §3

CEM cells = assay: Human T-cell leukemia (CEM) growth in SCID mice, FACS quantitation of CEM cells in blood; format: in vivo; conditions: 25 mg/kg intraperitoneally twice a day for 3 weeks; blood at day 33; CEM cells in white blood cells by FACS
Description: Human T-cell leukemia cell line, CEM, was obtained from American Type Culture Collection. Eight-week old female SCID mice were purchased from Charles Rive Laboratories (Wilmington, Mass.). FITC conjugated anti-human […] was obtained from BD […]). ACK lysing buffer was obtained from BioWhittaker. […] After three weeks treatment, blood was taken from mouse retro-orbital sinus at day 33. Red blood cells were partially lyzed with ACK lysing buffer. The cells were stained with FITC conjugated anti-human […] antibody for one hour at 4° C. FACS analysis was performed to quantitate the amount of CEM cells in the blood. White blood cells were gated for FACS analysis.

CEM = assay: MTS cytotoxicity, CEM T cell leukemia; conditions: Homo sapiens, CCRF-CEM, 72 h, read-out: In vitro Cytotoxicity IC50, CEM
Experimental: (§7) The in vitro activity of the compounds was determined in a selected set of human leukemia cell lines. CEM (T-cell leukemia), Jurkat (T-cell leukemia), K562 (chronic myelocyte), THP-1 (monocyte), SB (B-cell leukemia), U937 (lymphoma) were purchased from ATCC. H2 leukemia cell line was a gift from Harvard Medical School. The cell lines were maintained in RPMI1640(GIBCO) supplemented with 10% FCS, 100 units/ml penicillin, 100 ug/ml streptomycin, and 2 mM L-glutamine. […] All experiments were performed on exponentially growing cell culture. Cell densities were 2.5×10^4 cells/mL in all experiments.
(§8) Final concentrations […] were obtained by diluting the stock solution directly into the tissue culture medium. Cells were incubated with varying concentrations of compounds for 72 hours and the IC50 was determined by MTS (i.e. […]) assay.

HL-60 = assay: MTS growth inhibition, HL-60 cells; format: cell-based; conditions: Homo sapiens, HL-60, 72 h, MTS assay
Experimental: as §4, §5, §3

SB = assay: MTS cytotoxicity, SB B cell leukemia; conditions: Homo sapiens, 72 h, read-out: In vitro Cytotoxicity IC50, SB
Experimental: as §7, §8

Bowes/OV2 = assay: MTS growth inhibition, Vincristine resistant Bowes/OV2 cells; format: cell-based, human; conditions: for IC50: Homo sapiens, 72 hours, MTS assay, MDR cell line
Experimental: as §4, §6, §3

[2] = tested on: MES-SA/DX5 human sarcoma tumor; assay: MES-SA/DX5 human uterine sarcoma tumors in nude mice; format: in vivo; conditions: 15 mg/kg intravenously, 3 times a week for 3 weeks
Experimental: A supplemented media was prepared from 50% DMEM/Dulbecco Modified Eagle Medium (High Glucose), 50% RPMI 1640, 10% FBS/Fetal Bovine Serum (Hybridoma Tested; Sterile Filtered), 1% L-Glutamine, 1% Penicillin-Streptomycin, 1% MEM Sodium Pyruvate and 1% MEM Non-Essential Amino Acids. FBS was obtained from Sigmna Chemical Co. and other ingredients were obtained from Invitrogen Life Technologies, USA). The supplemental media was warmed to 37° C. and 50 ml of media was added to a 175 cm^2 tissue culture flask.
The cells used in the assay were multi-drug resistant MES—SA/DX-5 Human Uterine Sarcoma cells from the American Type Culture Collection. 1 vial of MES—SA/DX-5 cells from the liquid nitrogen frozen cell stock was removed. The frozen vial of cells was immediately placed into a 37° C. water bath and gently swirled until thawed. The freeze-vial was wiped with 70% ethanol and cells were immediately pipetted into the 175 cm^2 tissue culture flask containing supplemented media. […]
The flask was washed with 10 ml of sterile room temperature phosphate buffered saline (PBS). […] The supernatant was aspirated and the cell pellet was resuspended in 10 ml of supplemented media and the cells were counted. […]
The above procedure for trypsinizing and centrifuging the cells were followed. The supernatant was aspirated and the cell pellet was resuspended in 10 ml of sterile PBS and the cells were counted. […]

U937 = assay: MTS cytotoxicity, U937 lymphoma; format: cell-based; conditions: Homo sapiens, U-937, 72 hours, MTS assay, read-out: In vitro Cytotoxicity IC50, U937
Experimental: as §7, §8

H2 = assay: MTS cytotoxicity, H2 leukemia; format: cell-based; conditions: Homo sapiens, 72 hours, MTS assay, read-out: In vitro Cytotoxicity IC50, H2
Experimental: as §7, §8

[3] = MTS cytotoxicity, 39SK normal fibroblast; format: cell-based; conditions: human, 39SK cells (normal fibroblast), MTS assay, read-out: In vitro Cytotoxicity IC50, 39SK
Jurkat = assay: MTS cytotoxicity, Jurkat T cell leukemia; conditions: Homo sapiens, 72 h, read-out: In vitro Cytotoxicity IC50, Jurkat
Experimental: as §7, §8

THP-1 = assay: MTS cytotoxicity, THP-1 monocyte; conditions: Homo sapiens, THP-1, 72 h, read-out: In vitro Cytotoxicity IC50, THP-1
Experimental: as §7, §8

K-562 = assay: MTS cytotoxicity, K-562 chronic myelocyte; format: cell-based; conditions: Homo sapiens, K562, 72 hours, MTS assay, read-out: In vitro Cytotoxicity IC50, K-562
Experimental: as §7, §8

MES-SA = assay: MTS growth inhibition, MES-SA cells; format: cell-based; conditions: Homo sapiens, 72 h, MTS assay
Experimental: as §1, §2, §3

[4] = MES-SA/Dx5, Example 2, protocol of Example 1, MDR uterine sarcoma cell line, read-out: IC50 MES/DX5
[5] = MES-SA/Dx5, read-out: IC50 MES/DX5
[6] = MES-SA/Dx5, 72 hours, MTS assay, MDR cell line, read-out: IC50 MES-SA/DX5

SMILES: CN(NC(=O)CC(=O)NN(C)C(=S)C1CC1)C(=S)C1CC1 [(18)]
- IC50 (MES-SA/DX5; [4]): 10 nM

SMILES: CN(NC(=O)CC(=O)NN(C)C(=S)c1ccccc1)C(=S)c1ccccc1 [Compound (1)]
- IC50 (HL-60/TX1000): 50 nM
- specificity against HL60/TX1000 (HL-60/TX1000; IC50 HL-60 / IC50 HL-60/TX1000 (=0.4/0.05)): 8
- effect on anti-tumor activity of Epothilone D ([1]; FIG. 2): significantly enhanced anti-tumor activity of Epothilone D
- toxicity of combination with Epothilone D (body weight) ([1]; FIG. 3): without increasing toxicity
- IC50 (Bowes): 200 nM
- % circulating leukemia cells (CEM cells): ~4.6%
- IC50 (CEM): 10 nM
- IC50 (HL-60): 400 nM
- IC50 (SB): 5 nM
- IC50 (Bowes/OV2): 10 nM
- specificity against Bowes/OV2 (Bowes/OV2; IC50 Bowes / IC50 Bowes/OV2 (=0.2/0.01)): 20
- IC50 (MES-SA/DX5; MES-SA/Dx5, 72 h, read-out: IC50 MES-SA/DX5): 5 nM
- specificity against MES-SA/DX5 (MES-SA/DX5; IC50 MES-SA / IC50 MES-SA/DX5 (=0.05/0.005)): 10

SMILES: COc1cccc(C(=S)N(C)NC(=O)C(C)C(=O)NN(C)C(=S)c2cccc(OC)c2OC)c1OC [Compound (12)]
- IC50 (MES-SA/DX5; [5]): 5 nM

SMILES: COc1ccc(C)c(C(=S)N(C)NC(=O)CC(=O)NN(C)C(=S)c2cc(OC)ccc2C)c1 [Compound (13)]
- IC50 (MES-SA/DX5; [5]): 50 nM

SMILES: CN(NC(=O)CC(=O)NN(C)C(=S)c1cc(Cl)ccc1Cl)C(=S)c1cc(Cl)ccc1Cl [Compound (14)]
- IC50 (MES-SA/DX5; [5]): 10 nM

SMILES: CCN(NC(=O)C(C)C(=O)NN(CC)C(=S)c1ccccc1)C(=S)c1ccccc1 [Compound (16)]
- toxicity (body weight suppression, behavior changes) [2]: no obvious toxicity
- tumor growth of MES/SA-DX5 compared to vehicle treated mice ([2]; FIG. 1): significantly inhibits the tumor growth
- IC50 (MES-SA/DX5; [5]): 50 nM

- IC50 (HL-60/TX1000): 5000 nM
- IC50 (HL-60): 2 to 5 nM
SMILES: CC(=O)O[C@H]1C(=O)[C@@]2(C)[C@H]([C@H](OC(=O)c3ccccc3)[C@]3(O)C[C@H](OC(=O)[C@H](O)[C@@H](NC(=O)c4ccccc4)c4ccccc4)C(C)=C1C3(C)C)[C@]1(OC(C)=O)CO[C@@H]1C[C@@H]2O [Taxol ™, paclitaxel]
- IC50 (U937): 5 nM
- IC50 (H2): 5 nM
- IC50 at 72 h [3]: 1000 nM
- IC50 (CEM): 10 nM
- IC50 (Jurkat): 1 nM
- IC50 (SB): 1 nM
- IC50 (Bowes/OV2): 5000 nM
- IC50 (MES-SA/DX5; [6]): 5000 nM
- IC50 (MES-SA/DX5; [4]): 5000 nM
- IC50 (THP-1): 5 nM
- IC50 (K-562): 5 nM

- IC50 (HL-60/TX1000): 5000 nM
- IC50 (Bowes): 2 to 5 nM
- IC50 (HL-60): 2 to 5 nM
SMILES: CC[C@]1(O)C[C@H]2CN(CCc3c([nH]c4ccccc34)[C@@](C(=O)OC)(c3cc4c(cc3OC)N(C=O)[C@H]3[C@@](O)(C(=O)OC)[C@H](OC(C)=O)[C@]5(CC)C=CCN6CC[C@]43[C@@H]65)C2)C1 [Vincristine]
- IC50 (U937): 5 nM
- IC50 (H2): 5 nM
- IC50 at 72 h [3]: 1000 nM
- IC50 (CEM): 5 nM
- IC50 (Jurkat): 1 nM
- IC50 (SB): 1 nM
- IC50 (Bowes/OV2): 5000 nM
- IC50 (MES-SA/DX5; [6]): 5000 nM
- IC50 (THP-1): 5 nM
- IC50 (K-562): 5 nM
- IC50 (MES-SA): 2 to 5 nM
